The values below come from ChEMBL document CHEMBL1157539, “Thousands of chemical starting points for antimalarial lead identification” (Nature, 2010).

The subject of the experiment is Plasmodium falciparum. Put plainly: GSK_TCMDC: Inhibition of Plasmodium falciparum 3D7 in whole erythrocytes, using parasite LDH activity as an index of growth. The experiment is classed as functional, organism-based. The following applies: Plasmodium falciparum, 3D7.
`Cc1ccc(NC(=O)N2CCCN(CCCCCNC(=O)/C=C/c3ccc(Cl)c(Cl)c3)CC2)cc1`: the XC50 was determined as 0.758 µM. As for `O=C(O)c1ccc2nc(-c3ccccn3)c(-c3ccccn3)nc2c1`, the XC50 is 0.217 µM. Next, `COc1ccc2ncc(F)c([C@@H](O)CN3CCC(NCc4cc(C#N)c5c(c4)CCO5)CC3)c2n1`: 0.889 µM; `O=C(/C=C/c1ccc(Cl)c(Cl)c1)NC1CCC(CN2CCC(c3c[nH]c4ccccc34)C(O)C2)CC1` (stereo not given): 0.719 µM; `Clc1ccc(Cl)c2[nH]c(CNCCCNc3nc4ccccc4[nH]3)cc12`: 0.163 µM. As to `c1cncc(Oc2ccc(Nc3ccnc4cc(-c5cccc(CN6CCCCC6)c5)ccc34)cc2)c1`, the XC50 was 0.124 µM. Take `CS(=O)(=O)N1CC2(CCN(CCC(NC(=O)/C=C/c3ccccc3)c3ccc(Cl)c(Cl)c3)CC2)c2ccccc21` (stereo not given): the XC50 amounted to 0.782 µM. In turn, `CCCCCC(C)C(C)c1cc(O)c2c(c1)OC(C)(C)CC2(O)c1ccnn1C` (stereo not given) gave an XC50 of 0.964 µM. `O=c1cc(NCCCNCc2[nH]c3cc(Cl)ccc3c2Cl)[nH]c2ccccc12` displayed an XC50 of 0.91 µM. Next, `CC(=O)/N=C1\N=C(NC(C)=O)NC(C)(C)N1OCCCOc1ccc(Cl)c(Cl)c1`: 0.00833 µM; `CCc1cc(Br)c(CNCCCNc2cc(=O)c3ccccc3[nH]2)s1`: 0.949 µM; `Fc1cccc(COc2ccc(Nc3ncnc4cc(/C=C/[C@@H]5CCCN5)sc34)cc2Cl)c1`: 0.592 µM. The figure for `COc1ccc(S(=O)(=O)N(CC(=O)NN=C(C)c2cccs2)c2cc(C)cc(C)c2)cc1OC` is 0.141 µM; for `COc1cc(CN2CCC(C(=O)Nc3ccc(-c4cccc(C)c4)cc3)CC2)ccc1O` it is 1.12 µM. The figure for `N=c1c2nc(-c3c(F)cccc3Cl)[nH]c(=O)c2[nH]c(=O)n1-c1ccccc1` is 0.678 µM; for `O=C(Nc1cccc(CN2CCN(Cc3ccc(O)cc3)CC2)c1)c1cccc(C(F)(F)F)c1` it is 1.21 µM. The compound `CC(C)Oc1ccc(CCCON2C(=N)N=C(N)NC2(C)C)cc1` registered an XC50 of 0.0032 µM.

Consider `COc1cc(CNC[C@@H](O)[C@H](Cc2ccccc2)NC(=O)c2cc(C3CCCC3)cc(N3CCCS3(=O)=O)c2)cc(OC)c1`, for which the XC50 is 1.24 µM. On to `CCOC(=O)c1c(C)noc1Nc1ccc(OC)cc1`, for which the XC50 was 0.672 µM. In turn, `CC(CCCCC(=O)Nc1ccc(CC(C)NCCc2cccc(Cl)c2)cc1)NCCc1cccc(Cl)c1` (stereo not given) yielded an XC50 of 1.01 µM. The figure for `COc1cccc(CN2CCCN(Cc3cccc(NC(=O)c4cc5ccccc5s4)c3)CC2)c1` is 1.01 µM. `N=C(N)NC(=O)Nc1cc(Cl)c(Cl)c(Cl)c1` displayed an XC50 of 0.588 µM. The figure for `CN1CCN(c2ccnc3ccc(NC(=O)Nc4ccc(Cl)c(Cl)c4)cc23)CC1` is 0.876 µM.

Consider `CS(=O)(=O)CCNCc1cccc(-c2ccc3c(Nc4ccc(Oc5ccccc5)cc4)ccnc3c2)c1`, for which the XC50 was determined as 0.691 µM. The figure for `COc1ccc(CN2CCC(CNCC(c3ccccc3)c3ccccc3)CC2)cc1` is 0.228 µM; for `Clc1ccc(OCCC2CCN(CCCCCCN3CCCCC3)CC2)cc1Cl` it is 1.14 µM; for `CCOC(=O)c1ccc(NC(=O)Nc2ccc(-c3ccc(-c4nc5cccc(C)c5[nH]4)s3)cc2)cc1` it is 0.199 µM. Next, `N#CCCN1CCN(Cc2cccc(-c3ccc(-c4nc5cc(F)ccc5[nH]4)cc3)c2)CC1`: 0.599 µM; `Oc1cc2c(cc1CN1CCN(Cc3cccs3)CC1)CCC2`: 0.839 µM.

For the compound `O=C1CCCN1CCCNCc1cccc(-c2ccc(-c3nc4ccccc4[nH]3)s2)c1`, the XC50 was 0.859 µM. Next, `Cc1cccc2c3c([nH]c12)C1(CCN(CCc2ccccc2)CC1)NC(C(=O)NCc1ccccc1)C3` (stereo not given): 1 µM; `FC(F)(F)Oc1ccc(Nc2cc(-c3ccncc3)nc(-c3cccnc3)n2)cc1`: 0.672 µM. `CC(C)N1CCC(NCc2ccc(-c3ccc(Cl)cc3)cc2)CC1` displayed an XC50 of 0.646 µM.

`CCOC(=O)C(Oc1ccc2ccccc2c1)C(=O)OCC` displayed an XC50 of 0.756 µM. Next, `CC(=O)c1cccc(S(=O)(=O)NCCCNc2nc3cc(C)cc(C)c3cc2C#N)c1`: 0.914 µM. The figure for `c1ccc2c(NCCCCCCNc3c4c(nc5ccccc35)CCCC4)c3c(nc2c1)CCCC3` is 0.196 µM; for `CCCCN1CCN(Cc2cccc(NC(=O)c3ccc(Cl)c(Cl)c3)c2)CC1` it is 1.16 µM; for `CNC(=O)c1ccc2nc(C3CC3)n(CC3CCN(S(=O)(=O)c4cccc(Cl)c4)CC3)c2c1` it is 0.651 µM. Next, `Cc1cc(NCc2ccccc2)nc2cc(O)ccc12`: 0.784 µM; `CC(C)n1c(C2CCN(CC3CCN(C(=O)/C=C/c4ccc(Cl)c(Cl)c4)CC3)CC2)nc2ccccc21`: 1.03 µM.

As for `Cc1cc2nc(-c3ccc(C(=O)NC4CCN(Cc5ccccc5)CC4)cc3)[nH]c2cc1C`, the XC50 was found to be 0.743 µM. Next, `Oc1ccc(CCCc2cc(Oc3c(I)cc(CCc4ncc[nH]4)cc3I)ccc2O)cc1`: 0.873 µM. In turn, `O=C(NCC1Cc2cc(Oc3ccccc3)ccc2O1)c1ccc([N+](=O)[O-])o1` (stereo not given) showed an XC50 of 0.917 µM.

With `CC(C)n1cc(CN2CCCC(C(=O)Nc3cccc(-c4cc5ccccc5[nH]4)c3)C2)cn1` (stereo not given), the XC50 is 0.999 µM. The figure for `COc1ccc(Cn2c(Nc3cccc(C(F)(F)F)c3)nc3ccc(C(=O)NCCN4CCCC4)cc32)cc1Cl` is 0.753 µM; for `CC(=NNC(S)=NC(C)(C)C)c1ccccn1` it is 0.158 µM.

In the case of `O=C(NC1CCN(Cc2ccccc2O)C1)c1ccc(-c2ccccc2)cc1` (stereo not given), the XC50 was found to be 0.838 µM.

As to `Cc1ccc2[nH]c(-c3cc(-c4ccc(OCc5ccccc5)cc4)cnc3N)nc2c1`, the XC50 came to 1.68 µM. In the case of `O=C(O)c1ccc(NC(=O)C2CC(=O)N(Cc3ccc(Cl)cc3)C(=Nc3ccc(Cl)cc3)S2)cc1` (stereo not given), the XC50 is 0.53 µM. The figure for `CCNC(=O)CCc1cccc(Br)c1` is 0.533 µM. For the compound `Cc1cc(N(C)C)nc(Nc2ccc(NC(=O)C(C)Oc3ccccc3)cc2)n1` (stereo not given), the XC50 was 0.952 µM. Next, `CC[C@H]1CN2CC[C@@H]1C[C@H]2[C@H](O)c1cc(N2CCC(CO)CC2)nc2ccc(OC)cc12`: 0.162 µM; `COc1ccc(CCCCN2C(=O)C(c3ccccc3)(c3ccccc3)N=C2N)cc1`: 0.858 µM; `COc1ccc(CN2CCC(CNCCc3ccccc3Oc3ccccc3)CC2)cc1`: 1.1 µM. On to `Cc1cc(N2CC=CCC2)nc(NC(=N)Nc2ccc(Br)cc2)n1`, for which the XC50 was 0.69 µM. The figure for `CCN(CC)CCCC(C)Nc1ccnc2cc(C#N)ccc12` (stereo not given) is 0.139 µM; for `CN1CCN(Cc2cc(NC(=O)c3ccc(-c4ccc(Cl)cc4Cl)cc3)ccc2-c2ccccc2)CC1` it is 0.973 µM; for `CCOc1ccc2c(=NN=Cc3cccc(F)c3)cc(C)[nH]c2c1` it is 0.714 µM. On to `CC(C)(C)c1cc([N+](=O)[O-])cc(C(=O)Nc2ccccc2C(F)(F)F)c1O`, for which the XC50 is 0.652 µM. The figure for `COc1ccc(CNC2CCN(C)CC2)cc1-c1ccc(S(=O)(=O)NCc2ccccc2)c(F)c1` is 0.8 µM; for `N=C1N=C(N)NC2(CCCCC2)N1OCC1CCCCC1` it is 0.155 µM; for `c1ccc(C(c2cccs2)N2CCN(Cc3ccc(OCCCN4CCCCC4)cc3)CC2)cc1` (stereo not given) it is 1.23 µM. Next, `O=C(/C=C/c1ccc(Cl)c(Cl)c1)N1CCN(C(=O)Nc2ccc(C(F)(F)F)cc2)CC1`: 0.666 µM; `CCN(CC)CC(O)c1cc(-c2ccc(C)cc2)nc2c(C)cc(C)cc12` (stereo not given): 0.171 µM. Next, `CC(C)Cn1c(N)cc(=O)n(C)c1=O`: 0.978 µM; `CC1CCCCN1CCCNC(=O)c1cccc(-c2cc3cc(Cl)c(Cl)cc3[nH]2)c1` (stereo not given): 0.881 µM; `CC(=NO)C1=C(O)C(c2ccccc2)N(c2ccccc2)C1=O` (stereo not given): 0.701 µM. Consider `CCOc1cccc(C(=O)Nc2ccc(-c3nc4ccccc4[nH]3)cc2)c1`, for which the XC50 came out at 1.01 µM. The figure for `CS(=O)(=O)c1ccc2[nH]c(-c3cc(-c4cccc(F)c4)cnc3N)nc2c1` is 1.09 µM; for `Fc1cccc(Cl)c1-c1nc(NCCC(c2ccccc2)c2ccccc2)no1` it is 0.546 µM; for `Cn1c(-c2ccccc2)cc2c3c(=O)cc(C(F)(F)F)[nH]c3ccc21` it is 0.849 µM. The figure for `CC(C)Cc1cn(-c2nc(-c3nc4ccccc4[nH]3)cs2)c2ccncc12` is 0.09 µM. Next, `CCCNc1ccc2nccc(CCN3CCC(NCc4ccc5c(c4)NC(=O)CS5)CC3)c2n1`: 0.58 µM; `OCCn1c(CNCCCNc2nc3ccccc3[nH]2)cc2c(Cl)cc(Cl)cc21`: 0.806 µM.

As to `O=C(Nc1cccc(CN2CCN(Cc3cccc(O)c3)CC2)c1)c1ccc(Cl)c(Cl)c1`, the XC50 was determined as 0.411 µM. Next, `Cn1c2c(c3ccccc31)CN(CCC1(c3ccc(Cl)c(Cl)c3)CN(C(=O)c3ccccc3)CCO1)CC2` (stereo not given): 0.311 µM.

As to `CCc1nonc1NC(=O)c1oc2c(C)c(C)ccc2c1C`, the XC50 came out at 0.879 µM. Next, `Cn1c(Sc2ncnc3sccc23)nc2ccccc21`: 0.191 µM.

As to `CCOc1ccc(C(=O)Nc2cc(Br)c3c(c2)CNCC3)cc1C(F)(F)F`, the XC50 turned out to be 0.939 µM. The figure for `COc1ccc(S(=O)(=O)NCCCC2CCN(CCCCCNC(=O)C=Cc3ccc(Cl)c(Cl)c3)CC2)cc1` is 1.04 µM; for `c1ccc(-c2n[nH]cc2Nc2ccnc3ccccc23)nc1` it is 0.819 µM; for `c1cc(CN2CCN(CCN3CCOCC3)CC2)cc(-c2ccc(-c3nc4ccccc4[nH]3)cc2)c1` it is 0.131 µM. Next, `COc1cc(OC)c(OC)cc1CN1CCC2(CC1)CN(Cc1ccc(Cl)c(Cl)c1)C(=O)O2`: 0.815 µM; `CCN(CCNC(=O)Nc1cc(C(F)(F)F)cc(C(F)(F)F)c1)c1cccc(C)c1`: 0.804 µM.

For `O=C(/C=C/c1ccc(Cl)cc1)NCCCCCN1CCC(C(=O)Nc2ccc(Cl)cc2)CC1`, the XC50 worked out at 0.832 µM. The figure for `CN1CC=C(c2c[nH]c3ccc(C(=O)c4nccs4)cc23)CC1` is 0.242 µM; for `O=C(/C=C/c1ccc(Cl)cc1)Nc1ccc2nc(CN3CCCC3)ccc2c1` it is 0.0821 µM. Consider `Cc1cccc2nc(-c3cccc(-c4ccc(NC(=O)CN5CCN(C)CC5)cc4)c3)[nH]c12`, for which the XC50 is 0.562 µM.

With `COc1cccc(OC)c1C(=O)Nc1cccc(-c2nn3ccccc3c2-c2ccnc(Nc3cccc(F)c3)n2)c1`, the XC50 worked out at 0.749 µM. The figure for `CCCN1CCC(NCc2cn(C)nc2-c2ccc(Oc3ccccc3)cc2)CC1` is 1.44 µM.
